Values joined by “and” are separate entries in the source; they are usually repeats but may differ in a detail not shown here. Equal entries are not always repeated.
Tests used:
[1] = tested on: Human cervical epithelial cells (ME-180); test: ME-180 cell growth with jasmonic acid (hemocytometer counting); format: cell-based; settings: 1, 10 and 100 μg/ml, two days
Protocol: Human cervical epithelial cells (ME-180, ATCC) were propagated in culture at 37° C. using 5% CO2 in McCoy's 5A media (Invitrogen) with 10% heat-inactivated fetal bovine serum (Invitrogen). Jasmonic acid (Sigma) was diluted in the ME-180 media to 100, 10, and 1 microgram/mL.
ME-180 cells were plated in 12-well plates at a concentration of 5×10^4 cells per well in 2 mL of media. The cells were allowed to grow for 1 day. Cells in three wells were counted by trypsinizing and using a hemocytometer to determine cell number on day zero. The media was removed from all other wells and was replaced with fresh media, 100, 10, or 1 μg/mL jasmonic acid-containing media (2 mL) in triplicate. Cells were counted on days 1 and 2 to determine the effect of the jasmonic acid on cell growth.

human skin keratinocytes = test: Keratinocyte proliferation, 96-well Cell Titer 96 assay; format: cell-based; settings: for Cell Proliferation, Mean (absorbance at 490 nm) / Cell Proliferation, Median (absorbance at 490 nm): 48 hours, n=5
Protocol: The proliferative response of these human skin keratinocytes to the test compounds was measured in a 96-well assay system using keratinocyte basal medium (KBM, Clonetics, catalog number CC-3103) as a control. […] In addition, 100 μl of vehicle KBM was added to 5 wells as control. […] The spectrophotometric absorbance of each well was read at 490 nm.

[2] = tested on: collagen production in human skin fibroblast cell line; test: Collagen production by human skin fibroblasts (Takara EIA MK101); format: cell-based; settings: for Collagen Production, Mean (absorbance at 450 nm) / Collagen Production, Median (absorbance at 450 nm): 48 hours, n=2
Protocol: The cells were first grown in a 96-well assay system using Dulbecco's Modified Eagle's Medium (DMEM) with 10% fetal bovine serum (FBS) both purchased from Sigma Chemical Co, St. Louis, Mo. Serum-free DMEM was used as a control.
The assay was done by using the recommended 20 ul of the supernatant from each well of the 96-well plate. Standard buffer and stop solutions were freshly prepared before running the assay. 100 ul of antibody-POD conjugate solution (supplied with the kit) was added into the wells using pre antibody coated 96 well plate (supplied with the kit). 20 ul of standard and test solutions (from the other 96-well plate containing fibroblasts) were added to appropriate wells. Plate was mixed gently, sealed and incubated for three hrs. at 37° C.
After incubation each well was washed carefully four times with PBS buffer (400 ul). All the wells were completely emptied at the end of washing from any liquid.
100 ul of substrate solution (hydrogen peroxide and tetramethylbenzidine in a buffer solution, supplied with the kit) was added to each well and the plate was incubated for 15 minutes. At this point 100 ul of stop solution (freshly prepared 1N H2SO4) was added to each well in the same order as substrate. The plate was gently mixed and absorbance was read at 450 nm.

[3] = tested on: fibronectin production in human skin fibroblast cell line; test: Fibronectin production by human skin fibroblasts (Takara EIA MK115); format: cell-based; settings: for fibronectin production, Mean (absorbance at 450 nm) / fibronectin production, Median (absorbance at 450 nm): 48 hours, n=2
Protocol: The cells were first grown in a 96-well assay system using Dulbecco's Modified Eagle's Medium (DMEM) with 10% fetal bovine serum (FBS) both purchased from Sigma Chemical Co, St. Louis, Mo. Serum-free DMEM was used as a control. […] The fibronectin assay was performed using the recommended 100 μl of the supernatant from each well of the 96-well plate. Standard buffer and stop solutions were freshly prepared before running the assay. A pre-antibody-coated 96 well plate (provided with the kit) was used to transfer the test samples and control. The plate was mixed, sealed and incubated for 1 hour at 37° C. All the wells were washed after removing sample solutions, 3 times (300 μl) with washing buffer. 100 ul of antibody-POD conjugate solution was added into the wells. Plate was mixed, sealed and incubated for one hour at 37° C. Solutions were removed and the wells were washed 3 times with washing buffer. All the wells were completely emptied at the end of washing from any liquid. 100 μl of substrate solution (hydrogen peroxide and tetramethylbenzidine in a buffered solution) was added to each well and the plate was incubated at room temperature for 15 minutes. 100 μl of stop solution (freshly prepared 1N H2SO4) was added to each well in the same order as substrate. The plate was gently mixed and absorbance was read at 450 nm.

stratum corneum = test: Dansyl chloride cell renewal study in healthy female volunteers; format: in vivo, human
Source text: The stratum corneum renewal time is the time taken for the whole thickness of the stratum corneum to be exfoliated and replaced by new cells from the dividing epidermis. This renewal time is a fundamental indicator of skin health. […] See Jansen L H, Hojyo-Tomoko M T, Kligman A M., Improved fluorescence staining technique for estimating turnover of the human stratum corneum, Br J Dermatol., 90, 9-12, 1974; Ridge B D, Batt M D, Palmer H E, Jarrett A, The dansyl chloride technique for stratum corneum renewal as an indicator of changes in epidermal mitotic activity following topical treatment., Br J Dermatol., 118, 167-74, 1988; Grove G L, Kligman A M, Age-associated changes in human epidermal cell renewal., J Geron., 38, 137-142, 1983. The time required for the dye to disappear is therefore an indication of the turnover time of the stratum corneum. Therefore, any differences in the time required for the dye to disappear from treated and non-treated sites can be considered to be an expression of that product's ability to enhance epidermal renewal.
A dansyl chloride cell renewal study was conducted in healthy female volunteers ranging from 43-64 years of age. The study consisted of a two-week treatment period during which time the products were applied topically twice daily, including on weekend days, to the test sites. The area of application was designated, approximately 5 cm×10 cm on the upper inner arm. The other arm served as a control with no product application. […] Eight females received jasmonic acid and seven females received gibberellic acid.
The time required for a marker dye to disappear was used as the measure of cell renewal rate.

CC/C=C\C[C@H]1C(=O)CC[C@@H]1CC(=O)O [jasmonic acid]
ME-180 epithelial cell growth (FIGS. 8 and 9) [1]: increased cell growth in a dose dependent manner | Cell Proliferation, Mean (absorbance at 490 nm) (human skin keratinocytes; 1×10^−4 M): 0.5732 | Cell Proliferation, Median (absorbance at 490 nm) (human skin keratinocytes; 1×10^−4 M): 0.5860 | cell proliferating activity on human keratinocytes (summary in words) (human skin keratinocytes; 1×10^−4 to 1×10^−6 M): strong cell proliferating activity | Cell Proliferation, Mean (absorbance at 490 nm) (human skin keratinocytes; 1×10^−5 M): 0.7628 | Cell Proliferation, Median (absorbance at 490 nm) (human skin keratinocytes; 1×10^−5 M): 0.7750 | Cell Proliferation, Mean (absorbance at 490 nm) (human skin keratinocytes; 1×10^−6 M): 0.7734 | Cell Proliferation, Median (absorbance at 490 nm) (human skin keratinocytes; 1×10^−6 M): 0.7970 | Collagen Production, Mean (absorbance at 450 nm) ([2]; 1×10^−4 M): 0.8040 | Collagen Production, Median (absorbance at 450 nm) ([2]; 1×10^−4 M): 0.8040 | collagen production in human fibroblasts (summary in words) ([2]; 1×10^−4 to 1×10^−6 M): stimulate collagen production | Collagen Production, Mean (absorbance at 450 nm) ([2]; 1×10^−5 M): 0.7895 | Collagen Production, Median (absorbance at 450 nm) ([2]; 1×10^−5 M): 0.7895 | Collagen Production, Mean (absorbance at 450 nm) ([2]; 1×10^−6 M): 0.7475 | Collagen Production, Median (absorbance at 450 nm) ([2]; 1×10^−6 M): 0.7475 | fibronectin production, Mean (absorbance at 450 nm) ([3]; 1×10^−4 M): 0.2060 | fibronectin production, Median (absorbance at 450 nm) ([3]; 1×10^−4 M): 0.2060 | fibronectin production, Mean (absorbance at 450 nm) ([3]; 1×10^−5 M): 0.2025 | fibronectin production, Median (absorbance at 450 nm) ([3]; 1×10^−5 M): 0.2025 | fibronectin production, Mean (absorbance at 450 nm) ([3]; 1×10^−6 M): 0.1955 | fibronectin production, Median (absorbance at 450 nm) ([3]; 1×10^−6 M): 0.1955 | fibronectin production in human fibroblasts (summary in words) ([3]; all concentrations tested, vs control): effective | skin irritation or redness (stratum corneum; human, in vivo): no visible sign of any skin irritation or redness | RENEWAL, time for cell renewal of treated skin (stratum corneum; individual patients (one value per patient #), 0.25% in hyaluronic acid (0.5% aqueous solution), topical twice daily, upper inner arm, listed as JA): 16 Days and 15 Days (2×) and 17 Days and 14 Days and 11 Days and 12 Days (2×) | faster cell renewal rate over control (stratum corneum; overall, 0.25% topical, vs untreated arm): 28% | reduction in time required for cell renewal vs untreated control (stratum corneum; vs volunteers' control without treatment): about 28%

Reference: patent publication US8344022B2, “Vaginal health products” (Kimberly-Clark Worldwide, Inc., priority 2004, dated 2013)
